What was measured:
[1] = biological target: T1, mGAT2 (Mus musculus, UniProt P31651); test: [3H]GABA uptake assay in HEK-293 cells stably expressing mGAT2; assay type: cell-based; settings: [3H]GABA uptake; read-out: pIC50 ± SEM mGAT2 (converted)
T1 construct: expressed in transfected cells; host or cells: HEK-293
T1 sequence (P31651 1-614): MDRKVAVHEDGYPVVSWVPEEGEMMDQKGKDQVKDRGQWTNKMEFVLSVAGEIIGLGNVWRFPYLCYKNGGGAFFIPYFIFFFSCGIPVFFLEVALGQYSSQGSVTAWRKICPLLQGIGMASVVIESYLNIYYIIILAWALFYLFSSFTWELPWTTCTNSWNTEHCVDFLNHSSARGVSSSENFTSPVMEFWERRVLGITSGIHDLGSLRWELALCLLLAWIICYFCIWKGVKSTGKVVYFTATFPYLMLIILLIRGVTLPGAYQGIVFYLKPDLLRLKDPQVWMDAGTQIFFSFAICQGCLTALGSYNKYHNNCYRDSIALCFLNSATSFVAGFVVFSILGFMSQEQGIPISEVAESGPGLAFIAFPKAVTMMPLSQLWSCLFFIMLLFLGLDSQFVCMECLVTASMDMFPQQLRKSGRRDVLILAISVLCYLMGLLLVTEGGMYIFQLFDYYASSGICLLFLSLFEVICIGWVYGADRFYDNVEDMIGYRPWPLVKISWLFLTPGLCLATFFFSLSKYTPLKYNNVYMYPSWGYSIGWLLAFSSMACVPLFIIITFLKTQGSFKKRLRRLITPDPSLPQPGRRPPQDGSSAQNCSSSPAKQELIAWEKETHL

[2] = biological target: T2, mGAT3 (Mus musculus, UniProt P31649); test: [3H]GABA uptake assay in HEK-293 cells stably expressing mGAT3; assay type: cell-based; settings: [3H]GABA uptake; read-out: pIC50 ± SEM mGAT3 (converted)
T2 construct: expressed in transfected cells; host or cells: HEK-293
T2 sequence (P31649 1-602): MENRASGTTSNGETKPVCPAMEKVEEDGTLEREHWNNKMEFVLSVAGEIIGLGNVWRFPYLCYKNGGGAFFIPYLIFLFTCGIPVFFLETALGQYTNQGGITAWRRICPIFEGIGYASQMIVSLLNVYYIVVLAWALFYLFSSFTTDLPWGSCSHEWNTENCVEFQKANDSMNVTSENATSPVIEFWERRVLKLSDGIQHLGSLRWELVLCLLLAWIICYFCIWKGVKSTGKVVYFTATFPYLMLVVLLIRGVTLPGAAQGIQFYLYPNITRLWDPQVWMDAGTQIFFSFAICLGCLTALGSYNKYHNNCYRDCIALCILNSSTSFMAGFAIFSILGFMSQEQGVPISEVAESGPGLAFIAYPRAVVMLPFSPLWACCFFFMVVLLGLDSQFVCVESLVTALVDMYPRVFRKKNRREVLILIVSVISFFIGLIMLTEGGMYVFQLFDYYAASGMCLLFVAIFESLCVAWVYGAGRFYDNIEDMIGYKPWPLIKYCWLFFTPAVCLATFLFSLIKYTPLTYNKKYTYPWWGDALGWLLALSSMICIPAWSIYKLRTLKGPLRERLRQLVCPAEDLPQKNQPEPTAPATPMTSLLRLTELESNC

[3] = biological target: T3, mGAT4 (Mus musculus, UniProt P31650); test: [3H]GABA uptake assay in HEK-293 cells stably expressing mGAT4; assay type: cell-based; settings: [3H]GABA uptake; read-out: pIC50 ± SEM mGAT4 (converted)
T3 construct: expressed in transfected cells; host or cells: HEK-293
T3 sequence (P31650 1-627): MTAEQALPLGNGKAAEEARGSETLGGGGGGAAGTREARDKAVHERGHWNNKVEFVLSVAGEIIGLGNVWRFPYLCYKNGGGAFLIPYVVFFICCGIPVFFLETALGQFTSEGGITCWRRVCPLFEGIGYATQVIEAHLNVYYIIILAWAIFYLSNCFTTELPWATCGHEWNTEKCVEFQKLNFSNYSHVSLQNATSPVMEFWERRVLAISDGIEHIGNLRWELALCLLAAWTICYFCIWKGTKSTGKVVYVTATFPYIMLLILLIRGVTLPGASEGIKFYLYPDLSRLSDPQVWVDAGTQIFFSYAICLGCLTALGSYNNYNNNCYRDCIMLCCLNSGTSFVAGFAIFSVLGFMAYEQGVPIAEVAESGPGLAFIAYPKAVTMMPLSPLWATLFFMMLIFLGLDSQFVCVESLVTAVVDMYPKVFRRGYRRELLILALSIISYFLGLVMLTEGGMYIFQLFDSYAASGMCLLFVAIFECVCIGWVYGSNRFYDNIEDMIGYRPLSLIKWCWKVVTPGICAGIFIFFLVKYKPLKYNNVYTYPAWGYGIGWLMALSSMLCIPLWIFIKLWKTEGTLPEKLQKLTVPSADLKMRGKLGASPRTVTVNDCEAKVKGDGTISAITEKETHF

[4] = test system: oxaliplatin-treated mice; test: oxaliplatin-induced peripheral neuropathy, cold hyperalgesia (cold plate test); assay type: in vivo, mouse
Experimental: Before the in vivo tests, the test compounds were suspended in 1% Tween 80 (Baxter, Poland). The compounds were then administered intraperitoneally. […] The test compounds were administered only once daily on days 1 and 7 of oxaliplatin- or paclitaxel-induced neuropathy. In STZ-treated mice, test compounds were administered 21 days after STZ injection. Control mice used in oxaliplatin and paclitaxel NP models were injected with an appropriate amount of vehicle (0.9% saline). Oxaliplatin was purchased from Activate Scientific GmbH (Germany). Paclitaxel and STZ were purchased from Sigma-Aldrich (Poland).
For pain studies, oxaliplatin was dissolved in 5% glucose solution (Polfa Kutno, Poland). The dose of oxaliplatin used to induce peripheral neuropathy (10 mg/kg, intraperitoneal injection) was chosen on the basis of previous research[63],[64] and available literature data.[65]
A cold plate apparatus (hot/cold plate, Bioseb, France) set at 2.5 °C was used to assess the effect of treatment on cold hyperalgesia in oxaliplatin-treated mice. The cold plate test was conducted immediately after the von Frey test. Three hours after oxaliplatin administration, the animals were placed on a cold plate apparatus, and predrug latencies to pain reaction (i.e., lifting, biting, shaking of hind paws, jumping, movement deficits, or writhing response) were collected. Finally, the test compounds were injected, and 1 h later, the postdrug latencies to pain reaction were measured.

[5] = early phase of oxaliplatin-induced neuropathy, i.p.

Compound | IC50 [1] [µM] | IC50 [2] [µM] | IC50 [3] [µM] | effect on cold hyperalgesia, cold plate test ([4]; early (acute) phase of oxaliplatin-induced neuropathy, 30 mg/kg i.p., 30 mg/kg) | effect on cold hyperalgesia, cold plate test [4, 5]
CN(CCC=C1c2ccccc2CCc2ccccc21)C(CO)C(=O)NCc1ccccc1 (stereo not drawn) [Compound 56a, N-Benzyl-2-((3-(10,11-dihydro-5H-dibenzo[a,d][7]annulen-5-ylidene)propyl)(methyl)amino)-3-hydroxypropanamide] | 27.5 | 22.9 | 9.12 | reduced cold hyperalgesia in the acute phase | 
CN(CCON=C(c1ccccc1)c1ccccc1)C(CCN)C(=O)NCc1ccccc1Cl (stereo not drawn) [Compound 50a, 4-Amino-N-[(2-chlorophenyl)methyl]-2-[(2-{[(diphenylmethylidene)amino]oxy}ethyl)(methyl)amino]butanamide] | 3.72 | 8.51 | 20.4 |  | not effective
Cc1ccc(CNC(=O)[C@@H](C[C@@H](C)O)N(C)CCC=C2c3ccccc3CCc3ccccc32)cc1 (relative stereo) [Compound 2RS,4RS-39c, 2-((3-(10,11-Dihydro-5H-dibenzo[a,d][7]annulen-5-ylidene)propyl)(methyl)amino)-4-hydroxy-N-(4-methylbenzyl)pentanamide] | 20.4 | 6.61 | 4.37 |  | not effective
